The structures appear in SMILES notation.

One test has as its target IKK (Homo sapiens, UniProt O14920+O15111). Briefly: TNFα-induced IKK activity in human peripheral blood monocytes. In kind it is cell-based.
The next test addresses p38 (Homo sapiens, UniProt Q16539). Briefly: In vitro p38 kinase activity. Further details: Endogenous IKK, HA-tagged IKKα, endogenous JNK1, and p38 activities were determined; endogenous in cells. Conditions: in vitro incubation with up to 60 μM. In kind it is biochemical. On the procedure:
Cell lysates were incubated with anti-IKKα (Pharmingen), anti-HA (12CA5; Pharmingen), anti-JNK1 (333.8; Pharmingen), or anti-p38 (New England Biolabs) for 2 hours. Then, 15 μl protein A-Sepharose (Sigma) were added and the mixture was allowed to incubate for 1 hour. After extensive washing, kinase assays were performed as known in the art (See e.g., DiDonato et al., Nature 388:548-554 [1997]). Endogenous IKK, HA-tagged IKKα, endogenous JNK1, and p38 activities were determined with GST-1κBα(1-54), GST-c-Jun(1-79), and GST-ATF2 as substrates.
Endogenous IKK was immunoprecipitated from TNFα-stimulated HeLa cells and the kinase activity determined in the presence of different concentrations of PGA1 (the results of which are shown in FIG. 2B) or 15dPGJ2 (the results of which are shown in FIG. 2C).

Sequence of p38 (Q16539 whole entry): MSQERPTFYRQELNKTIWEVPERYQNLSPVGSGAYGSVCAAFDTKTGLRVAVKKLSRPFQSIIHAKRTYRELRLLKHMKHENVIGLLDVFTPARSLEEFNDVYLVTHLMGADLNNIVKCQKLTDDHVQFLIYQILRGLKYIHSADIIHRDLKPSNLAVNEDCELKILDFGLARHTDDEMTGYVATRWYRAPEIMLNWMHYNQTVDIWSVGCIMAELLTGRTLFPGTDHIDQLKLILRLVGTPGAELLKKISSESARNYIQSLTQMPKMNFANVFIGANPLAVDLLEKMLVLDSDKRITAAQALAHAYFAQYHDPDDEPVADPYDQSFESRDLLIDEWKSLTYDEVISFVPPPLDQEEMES
Sequence of IKK (O14920 whole entry): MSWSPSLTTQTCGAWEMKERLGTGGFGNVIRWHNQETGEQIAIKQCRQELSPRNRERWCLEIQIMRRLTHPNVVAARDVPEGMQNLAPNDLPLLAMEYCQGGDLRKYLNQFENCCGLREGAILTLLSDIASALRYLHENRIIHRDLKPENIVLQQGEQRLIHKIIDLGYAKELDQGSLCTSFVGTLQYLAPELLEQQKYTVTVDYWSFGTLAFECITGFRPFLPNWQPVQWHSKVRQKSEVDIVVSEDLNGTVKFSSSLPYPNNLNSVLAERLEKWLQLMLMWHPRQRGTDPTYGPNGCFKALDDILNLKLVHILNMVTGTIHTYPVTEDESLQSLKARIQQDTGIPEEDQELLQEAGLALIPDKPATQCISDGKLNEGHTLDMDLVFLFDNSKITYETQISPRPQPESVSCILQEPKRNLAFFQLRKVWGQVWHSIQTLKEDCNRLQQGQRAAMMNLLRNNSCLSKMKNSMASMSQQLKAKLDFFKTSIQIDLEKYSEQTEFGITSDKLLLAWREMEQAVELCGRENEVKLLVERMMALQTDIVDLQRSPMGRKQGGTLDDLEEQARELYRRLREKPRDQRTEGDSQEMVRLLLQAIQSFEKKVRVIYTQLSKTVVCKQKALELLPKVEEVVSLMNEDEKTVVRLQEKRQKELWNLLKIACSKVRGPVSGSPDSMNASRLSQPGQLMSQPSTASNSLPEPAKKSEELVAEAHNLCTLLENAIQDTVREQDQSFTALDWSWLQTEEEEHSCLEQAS
Sequence of IKK (O15111 whole entry): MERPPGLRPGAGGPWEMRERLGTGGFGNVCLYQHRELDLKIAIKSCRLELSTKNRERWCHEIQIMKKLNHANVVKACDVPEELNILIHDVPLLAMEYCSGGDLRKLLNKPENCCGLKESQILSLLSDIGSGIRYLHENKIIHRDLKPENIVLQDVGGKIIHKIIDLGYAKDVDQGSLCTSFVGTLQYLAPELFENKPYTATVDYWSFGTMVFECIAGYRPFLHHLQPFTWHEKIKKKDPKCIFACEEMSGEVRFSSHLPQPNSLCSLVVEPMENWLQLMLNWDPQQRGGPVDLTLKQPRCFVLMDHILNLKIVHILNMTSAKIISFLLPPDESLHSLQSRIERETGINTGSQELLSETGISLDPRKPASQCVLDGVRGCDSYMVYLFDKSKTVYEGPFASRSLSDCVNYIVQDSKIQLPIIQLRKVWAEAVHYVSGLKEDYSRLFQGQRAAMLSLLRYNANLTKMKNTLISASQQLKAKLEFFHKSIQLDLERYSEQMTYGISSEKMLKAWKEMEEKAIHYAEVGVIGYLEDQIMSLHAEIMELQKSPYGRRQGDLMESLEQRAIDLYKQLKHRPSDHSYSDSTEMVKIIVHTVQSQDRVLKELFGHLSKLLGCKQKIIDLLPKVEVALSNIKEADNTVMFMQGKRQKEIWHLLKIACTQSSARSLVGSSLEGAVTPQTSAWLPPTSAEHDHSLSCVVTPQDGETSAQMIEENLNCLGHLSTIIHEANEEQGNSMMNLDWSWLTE
Sequence of IKK (Q9Y6K9 whole entry partner): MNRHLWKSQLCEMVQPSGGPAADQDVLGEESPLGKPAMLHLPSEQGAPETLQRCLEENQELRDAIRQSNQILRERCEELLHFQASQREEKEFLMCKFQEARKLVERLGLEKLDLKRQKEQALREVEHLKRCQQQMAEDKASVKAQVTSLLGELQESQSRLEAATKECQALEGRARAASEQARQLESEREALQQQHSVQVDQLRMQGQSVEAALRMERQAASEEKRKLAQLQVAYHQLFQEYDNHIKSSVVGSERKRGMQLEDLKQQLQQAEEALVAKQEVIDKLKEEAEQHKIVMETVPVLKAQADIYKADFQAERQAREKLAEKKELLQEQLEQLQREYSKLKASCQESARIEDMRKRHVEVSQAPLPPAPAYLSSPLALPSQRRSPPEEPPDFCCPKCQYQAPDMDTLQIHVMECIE

Take `CCCCC/C=C/C=C1/C(=O)C=C[C@@H]1C/C=C\CCCC(=O)O` [15dPGJ2, 15-deoxy-Δ^12-14-PGJ2]: at IKK, the “effect on TNFα-induced IKK activity” value is given as “inhibited”. Moreover, the “inhibition of p38 activity in vitro” value against p38 is listed as “No significant inhibition”.
